These results are taken from US7271170B2, “Imidazo-pyrimidines and triazolo-pyrimidines: benzodiazepine receptor ligands” (Neurogen Corporation, priority 2003, dated 2007).

SMILES strings stand for the structures. A value given as a limit tells only on which side of the number the result lay.

The test deals with benzodiazepine site of the GABAA receptor. Kind of test: Ligand binding assay of Example 6 (3H-Ro15-1788 competition, purified rat cortical membranes). Conditions: ligand binding assay of Example 6; Table 5 Ki.
In turn, `CCC(O)c1c(Cn2ccnc2-c2ncccc2F)ncn2nc(C)nc12` (centres unmarked) [Compound 222, 1-{7-[2-(3-Fluoro-pyridin-2-yl)-imidazol-1-ylmethyl]-2-methyl-[1,2,4]triazolo[1,5-c]pyrimidin-8-yl}-propan-1-ol] returned a Ki of less than 1 µM.

In the case of `CCOc1c(Cn2ccnc2-c2ncccc2F)ncn2nc(C)nc12` [Compound 243, 8-Ethoxy-7-[2-(3-fluoro-pyridin-2-yl)-imidazol-1-ylmethyl]-2-methyl-[1,2,4]triazolo[1,5-c]pyrimidine], the inhibition constant Ki was less than 1 µM.

In turn, `CCCc1c(Cn2ccnc2-c2cccc(C(F)(F)F)n2)ncn2ncnc12` [Compound 235, 8-Propyl-7-[2-(6-trifluoromethyl-pyridin-2-yl)-imidazol-1-ylmethyl]-[1,2,4]triazolo[1,5-c]pyrimidine] registered a Ki of less than 1 µM. The value for `CCCc1c(Cn2ccnc2-c2ncccc2F)ncn2nc(C(C)(C)O)nc12` [Compound 249, 2-(7-{[2-(3-fluoropyridin-2-yl)-1H-imidazol-1-yl]methyl}-8-propyl[1,2,4]triazolo[1,5-c]pyrimidin-2-yl)propan-2-ol] was less than 1 µM. For `Cc1nc2c(CCO)c(Cn3ccnc3-c3ncccc3F)ncn2n1` [Compound 231, 2-{7-[2-(3-Fluoro-pyridin-2-yl)-imidazol-1-ylmethyl]-2-methyl-[1,2,4]triazolo[1,5-c]pyrimidin-8-yl}-ethanol], the Ki was less than 1 µM. The result for `CCCc1c(Cn2ccnc2-c2cccc(F)n2)ncn2nc(COCC)nc12` [Compound 250, 2-(ethoxymethyl)-7-{[2-(6-fluoropyridin-2-yl)-1H-imidazol-1-yl]methyl}-8-propyl[1,2,4]triazolo[1,5-c]pyrimidine] reads less than 1 µM. The value for `CCCc1c(Cn2ccnc2-c2ncccc2F)ncn2nc(N(CCC)CCC)nc12` [Compound 259, 7-{[2-(3-fluoropyridin-2-yl)-1H-imidazol-1-yl]methyl}-N,N,8-tripropyl[1,2,4]triazolo[1,5-c]pyrimidin-2-amine] was less than 1 µM; that for `CCc1c(Cn2ccnc2-c2ncccc2F)ncn2ncnc12` [Compound 234, 8-ethyl-7-{[2-(3-fluoropyridin-2-yl)-1H-imidazol-1-yl]methyl}[1,2,4]triazolo[1,5-c]pyrimidine] was less than 1 µM; that for `CCCc1c(Cn2ccnc2-c2ncccc2F)ncn2nc(-c3nccs3)nc12` [Compound 258, 7-{[2-(3-fluoropyridin-2-yl)-1H-imidazol-1-yl]methyl}-8-propyl-2-(1,3-thiazol-2-yl)[1,2,4]triazolo[1,5-c]pyrimidine] was less than 1 µM.

In the case of `CCc1c(Cn2ccnc2-c2ncccc2F)ncn2nc(C)nc12` [Compound 244, 8-ethyl-7-{[2-(3-fluoropyridin-2-yl)-1H-imidazol-1-yl]methyl}-2-methyl[1,2,4]triazolo[1,5-c]pyrimidine], the inhibition constant Ki was less than 1 µM. In the case of `CCCc1c(Cn2ccnc2-c2ncccc2F)ncn2nc(-c3cccnc3)nc12` [Compound 225, 7-[2-(3-Fluoro-pyridin-2-yl)-imidazol-1-ylmethyl]-8-propyl-2-pyridin-3-yl-[1,2,4]triazolo[1,5-c]pyrimidine], the Ki was less than 1 µM. `CCCc1c(Cn2ccnc2-c2ncccc2F)ncn2nc(C3CCCO3)nc12` (centres unmarked) [Compound 254, 7-{[2-(3-fluoropyridin-2-yl)-1H-imidazol-1-yl]methyl}-8-propyl-2-(tetrahydrofuran-2-yl)[1,2,4]triazolo[1,5-c]pyrimidine] came in with a Ki of less than 1 µM. Turning to `CCCc1c(Cn2ccnc2-c2ncccc2C#N)ncn2nc(C)nc12` [Compound 242, 2-[1-(2-methyl-8-propyl-[1,2,4]triazolo[1,5-c]pyrimidin-7-ylmethyl)-1H-imidazol-2-yl]-nicotinonitrile], the inhibition constant Ki is less than 1 µM. The value for `COCc1c(Cn2ccnc2-c2ncccc2F)ncn2nc(C)nc12` [Compound 220, 7-[2-(3-Fluoro-pyridin-2-yl)-imidazol-1-ylmethyl]-8-methoxymethyl-2-methyl-[1,2,4]triazolo[1,5-c]pyrimidine] was less than 1 µM; that for `FCCCc1c(Cn2ccnc2-c2ncccc2F)ncn2ncnc12` [Compound 233, 8-(3-Fluoro-propyl)-7-[2-(3-fluoro-pyridin-2-yl)-imidazol-1-ylmethyl]-[1,2,4]triazolo[1,5-c]pyrimidine] was less than 1 µM. The result for `CCCc1c(Cn2ccnc2-c2ncccc2F)ncn2nc(COC(C)C)nc12` [Compound 263, 7-{[2-(3-fluoropyridin-2-yl)-1H-imidazol-1-yl]methyl}-2-(isopropoxymethyl)-8-propyl[1,2,4]triazolo[1,5-c]pyrimidine] reads less than 1 µM; that for `C/C=C/c1c(Cn2ccnc2-c2ncccc2F)ncn2nc(C)nc12` [Compound 224, 7-[2-(3-Fluoro-pyridin-2-yl)-imidazol-1-ylmethyl]-2-methyl-8-propenyl-[1,2,4]triazolo[1,5-c]pyrimidine], less than 1 µM. Turning to `CCCc1c(Cn2ccnc2-c2cccc(C#N)n2)ncn2nc(COC)nc12` [Compound 253, 6-(1-{[2-(methoxymethyl)-8-propyl[1,2,4]triazolo[1,5-c]pyrimidin-7-yl]methyl}-1H-imidazol-2-yl)pyridine-2-carbonitrile], the Ki was less than 1 µM. `N#Cc1cccc(-c2nccn2Cc2ncn3ncnc3c2CCCF)n1` [Compound 237, 6-{1-[8-(3-Fluoro-propyl)-[1,2,4]triazolo[1,5-c]pyrimidin-7-ylmethyl]-1H-imidazol-2-yl}-pyridine-2-carbonitrile] had an inhibition constant Ki of less than 1 µM.

Turning to `CCCc1c(Cn2cc(Cl)nc2-c2ncccc2F)ncn2ncnc12` [Compound 241, 7-[4-Chloro-2-(3-fluoro-pyridin-2-yl)-imidazol-1-ylmethyl]-8-propyl-[1,2,4]triazolo[1,5-c]pyrimidine], the inhibition constant (Ki) is less than 1 µM. The result for `CCOc1c(Cn2ccnc2-c2ncccc2F)ncn2ncnc12` [Compound 245, 8-ethoxy-7-{[2-(3-fluoropyridin-2-yl)-1H-imidazol-1-yl]methyl}[1,2,4]triazolo[1,5-c]pyrimidine] reads less than 1 µM. With `N#Cc1cccnc1-c1nccn1Cc1ncn2ncnc2c1CCCF` [Compound 236, 2-{1-[8-(3-Fluoro-propyl)-[1,2,4]triazolo[1,5-c]pyrimidin-7-ylmethyl]-1H-imidazol-2-yl}-nicotinonitrile], the Ki was less than 1 µM. In the case of `CCCc1c(Cn2ccnc2-c2cccc(C#N)n2)ncn2nc(COC(C)C)nc12` [Compound 264, 6-(1-{[2-(isopropoxymethyl)-8-propyl[1,2,4]triazolo[1,5-c]pyrimidin-7-yl]methyl}-1H-imidazol-2-yl)pyridine-2-carbonitrile], the inhibition constant (Ki) is less than 1 µM. The value for `CCc1nc2c(CC)c(Cn3ccnc3-c3cc(F)ccc3C)ncn2n1` [Compound 219, 2,8-Diethyl-7-[2-(5-fluoro-2-methyl-phenyl)-imidazol-1-ylmethyl]-[1,2,4]triazolo[1,5-c]pyrimidine] was less than 1 µM; that for `CCCc1c(Cn2ccnc2-c2cccc(C#N)n2)ncn2nc(COCC)nc12` [Compound 260, 6-(1-{[2-(ethoxymethyl)-8-propyl[1,2,4]triazolo[1,5-c]pyrimidin-7-yl]methyl}-1H-imidazol-2-yl)pyridine-2-carbonitrile] was less than 1 µM; that for `CCCc1c(Cn2ccnc2-c2ncccc2F)ncn2nc(C(=O)OCC)nc12` [Compound 238, 7-[2-(3-Fluoro-pyridin-2-yl)-imidazol-1-ylmethyl]-8-propyl-[1,2,4]triazolo[1,5-c]pyrimidine-2-carboxylic acidethyl ester] was less than 1 µM. The value for `Cc1nc2c(CCCF)c(Cn3ccnc3-c3ncccc3F)ncn2n1` [Compound 232, 8-(3-Fluoro-propyl)-7-[2-(3-fluoro-pyridin-2-yl)-imidazol-1-ylmethyl]-2-methyl-[1,2,4]triazolo[1,5-c]pyrimidine] was less than 1 µM.

Take `Cc1nc2c(CCF)c(Cn3ccnc3-c3ncccc3F)ncn2n1` [Compound 229, 8-(2-Fluoro-ethyl)-7-[2-(3-fluoro-pyridin-2-yl)-imidazol-1-ylmethyl]-2-methyl-[1,2,4]triazolo[1,5-c]pyrimidine]: the inhibition constant Ki is less than 1 µM. As to `CCCc1c(Cn2ccnc2-c2ncccc2F)ncn2nc(OCC)nc12` [Compound 247, 2-ethoxy-7-{[2-(3-fluoropyridin-2-yl)-1H-imidazol-1-yl]methyl}-8-propyl[1,2,4]triazolo[1,5-c]pyrimidine], the inhibitory constant (Ki) was less than 1 µM.

Regarding `CCCc1c(Cn2ccnc2-c2cccc(F)n2)nc(C)n2nc(CC)nc12` [Compound 218, 2-Ethyl-7-[2-(6-fluoro-pyridin-2-yl)-imidazol-1-ylmethyl]-5-methyl-8-propyl-[1,2,4]triazolo[1,5-c]pyrimidine], the inhibition constant Ki was less than 1 µM. For the compound `CCCc1c(Cn2ccnc2-c2ncccc2F)ncn2nc(CO)nc12` [Compound 223, {7-[2-(3-Fluoro-pyridin-2-yl)-imidazol-1-ylmethyl]-8-propyl-[1,2,4]triazolo[1,5-c]pyrimidin-2-yl}-methanol], the Ki was less than 1 µM. Consider `CCCc1c(Cn2ccnc2-c2ncccc2F)ncn2nc(N)nc12` [Compound 248, 7-{[2-(3-fluoropyridin-2-yl)-1H-imidazol-1-yl]methyl}-8-propyl[1,2,4]triazolo[1,5-c]pyrimidin-2-amine], for which the Ki was less than 1 µM. The value for `CCCc1c(Cn2ccnc2-c2cccc(F)n2)nc(C)n2nc(C)nc12` [Compound 217, 7-[2-(6-Fluoro-pyridin-2-yl)-imidazol-1-ylmethyl]-2,5-dimethyl-8-propyl-[1,2,4]triazolo[1,5-c]pyrimidine] was less than 1 µM; that for `Cc1nc2c(CCOCc3ccccc3)c(Cn3ccnc3-c3ncccc3F)ncn2n1` [Compound 227, 8-(2-Benzyloxy-ethyl)-7-[2-(3-fluoro-pyridin-2-yl)-imidazol-1-ylmethyl]-2-methyl-[1,2,4]triazolo[1,5-c]pyrimidine] was less than 1 µM. `CCC(O)c1c(Cn2ccnc2-c2cccc(F)n2)ncn2nc(C)nc12` (centres unmarked) [Compound 221, 1-{7-[2-(6-Fluoro-pyridin-2-yl)-imidazol-1-ylmethyl]-2-methyl-[1,2,4]triazolo[1,5-c]pyrimidin-8-yl}-propan-1-ol] yielded an inhibition constant (Ki) of less than 1 µM.
